Experimental findings from US4320052A, “Derivatives of A-30912A nucleus” (Eli Lilly and Company, priority 1980, dated 1982) are described below.

In data set [1] the test system is Candida albicans A-26. The data set is described as follows: Agar plate disc diffusion test (MIC). The class given is cell-based. The settings on record: 0.01M sodium borate pH 7.5; 20 μg/disc top, twofold dilutions; 24 hours, 30° C. The method, then:
(§1) Tables II and III give the results of the testing in vitro of the compounds of Examples 1-16 by agar-plate disc-diffusion methods. In Table II activity is measured by the size (diameter in mm.) of the observed zone of inhibition of the microorganism produced by the test compound. In Table III, activity is measured by the minimal inhibitory concentration (MIC) of the substance (μg/dic) required to inhibit growth of the test organism. Table IV gives the results of the testing in vitro of the n-tridecanoyl derivative of A30912A nucleus (Formula III, R is n-C12 H25) against five strains of Candida albicans by the agar dilution method. In […] activity is measured by the minimal inhibitory concentration (MIC) of the substance (μg/ml) required to inhibit the test organism.
(§2) *Compounds were suspended in 0.01M sodium borate solution, pH 7.5. The
(§3) compounds were tested at 20 μg/disc at top level and at twofold
(§4) dilutions until end points were reached. Incubation: 24 hours; 30°
In general terms: A growth-free zone around the sample is the usual read-out of agar diffusion tests.

For data set [2], the system named is Trichophyton mentagrophytes #6. The data set is described as follows: Agar plate disc diffusion test (MIC). The following applies: 0.01M sodium borate pH 7.5; 20 μg/disc top, twofold dilutions; 24 hours, 30° C. The class given is cell-based. The method, then: as §1, §2, §3, §4
A short description of data set [3]: Blood levels after oral administration in mice (bioassay vs. Aspergillus montevidensis A35137). The settings on record: mouse, in vivo; for Blood Levels After Oral Administration In Mice: 240 min. The source says: determined by bioassay vs. Aspergillus montevidensis A35137.
The subject of data set [4] is Candida albicans A-26. The data set is described as follows: In vivo activity against Candida albicans A-26 infection in mice. The settings on record: Candida albicans, A26, sc, 24 h, mice, subcutaneous, schedule A (40, 20, 15, and 10 mg/kg), 0, 4, 24 hours; for minimal effective dose: read-out: Lowest Active Dose; for ED50: increase in survival time, read-out: ED50. Also on record: species or system mice infected with Candida albicans A-26. The method, then:
The results of in vivo tests to evaluate the effectiveness of the compound of Examples 1-16 against an infection caused by Candida albicans A-26 in mice are given in Table V, where activity is measured by the ED50 value (the dose in mg/kg. required to cure 50% of the test animals). Where an ED50 value was not obtained, activity is indicated by the lowest dose at which a significant anti-fungal effect is observed. In this test, groups of male albino mice (specific pathogen free), weighing 18 to 20 grams, are infected intravenously with Candida albicans A-26. The animals are X-irradiated 24 hours prior to infection at about 50 roentgens per minute for 8 minutes (400 total dose) to reduce immune responses to the infecting organism. At 0, 4, and 24 hours post infection each group of mice is given graded doses subcutaneously of the test compound as a suspension in 33% polyethylene glycol-water. The day of death for each animal is recorded.
mg/kg. Dosages given 0, 4, and 24 hours post injection as suspension of
test compound in 30% PEG--H2 O. Number of mice receiving test
compounds at each dosage level; 6 mice per group. Number of mice in
control (untreated) group: 10 mice per group.
**As measured by increase in survival time of treated animals versus
control, calculated by method of Reed v Mueuch, American J. Hygiene, 27,

The test system of data set [5] is Trichophyton mentagraphytes A-23. Nature of the data set: Agar plate disc diffusion test (zone of inhibition). The data set is classed as cell-based, Trichophyton mentagrophytes. The following applies: A23, suspension in methanol 1 mg/ml, 7mm disc. The method, then:
as §1
(§5) ^(a) Compounds were tested as suspension in methanol at a
(§6) concentration of 1 mg/ml. by dipping a 7mm disc into the suspension and
(§7) placing it on the agar surface. Incubation: 24-48 hours at 25-37°

Data set [6] has as its system Candida albicans A-26. Described as above. The settings on record: suspension in methanol 1 mg/ml, 7mm disc; 24-48 hours at 25-37° C. The data set is classed as cell-based. The method, then:
as §1, §5, §6, §7

The subject of another data set is Neurospora crassa 846. Described as above. The data set is classed as cell-based. The following applies: Neurospora crassa, 846, suspension in methanol 1 mg/ml, 7mm disc. The method, then:
as §1, §5, §6, §7

In data set [7] the test system is Saccharomyces pastoranius X-52. The description is as above. The class given is cell-based, Saccharomyces pastorianus. The settings on record: X52, suspension in methanol 1 mg/ml, 7mm disc, 24-48 hours at 25-37° C., read-out: Size of zone of inhibition, Saccharomyces pastoranius X-52. The method, then:
as §1, §5, §6, §7

Setting [8] is: 24-48 hours at 25-37° C., read-out: Size of zone of inhibition, Trichophyton mentagraphytes A-23.
Setting [9] is: 24-48 hours at 25-37° C., read-out: Size of zone of inhibition, Neurospora crassa 846.

Values joined by “and” are separate entries in the source; they are usually repeats but may differ in a detail not shown here. Equal entries are not always repeated. Where two headings read alike, the source gives them in different places. Numbered stars: 1 amine (or outer) side, 2 acyl side, 3 side chain; on linkers, the order of the positions; unused ones are H or OH. Bridge positions count the residues as written; N and C are the ends. Square brackets hold non-standard residues; d marks the D form. Peptide text beside a SMILES is read from it. * marks the point of attachment. Orn(4R-OH,5R-OH) = O=C([C@H](C[C@@H](O)[C@@H](O)N[*:3])N[*:1])[*:2]; hTyr(3S-OH,4S-OH) = N[C@H](C(=O)O)[C@H](O)[C@@H](O)c1ccc(O)cc1; Pro(3S-OH,4S-Me) = C[C@H]1CN[C@H](C(=O)O)[C@H]1O; Docosanoyl = CCCCCCCCCCCCCCCCCCCCCC(=O)*; Nonadecanoyl = CCCCCCCCCCCCCCCCCCC(=O)*; Arachidoyl = CCCCCCCCCCCCCCCCCCCC(=O)*; Hyp = O=C(O)[C@@H]1C[C@@H](O)CN1

Broadly, the zone of inhibition is the size of the clear area around the sample on an inoculated plate. For orientation: ED50 means the midpoint of the dose-response relation.

`CCCCCCCCCCCCCCCCCCC(=O)N[C@H]1C[C@@H](O)[C@@H](O)NC(=O)[C@@H]2[C@@H](O)[C@@H](C)CN2C(=O)[C@H]([C@@H](C)O)NC(=O)[C@H]([C@H](O)[C@@H](O)c2ccc(O)cc2)NC(=O)[C@@H]2C[C@@H](O)CN2C(=O)[C@H]([C@@H](C)O)NC1=O` [Example 12] (Nonadecanoyl-[Orn(4R-OH,5R-OH)]T[Hyp][hTyr(3S-OH,4S-OH)]T[Pro(3S-OH,4S-Me)]; lactam 1-C): the “MIC, Candida albicans A-26” value in the data set on Candida albicans A-26 [1] was 2.5 μg/disc and 5.0 μg/disc. The “MIC, Trichophyton mentagrophytes #6” value in data set [2] is 1.25 μg/disc and 0.625 μg/disc. In data set [3] (po, 416 mg/kg), this molecule gave a concentration at 4 h of 54 µg/mL. Moreover, the minimal effective dose with Candida albicans A-26 [4] was not below 5 mg/kg. For the same molecule, the zone of inhibition at 1000 µg/mL amounted to 22 mm in data set [5] (*distinct measurable zone of inhibition with regrowth of organism around disc, read-out: Size of zone of inhibition, Trichophyton mentagraphytes A-23 (*)); 18 mm in the data set on Neurospora crassa 846 (*distinct measurable zone of inhibition with regrowth of organism around disc, read-out: Size of zone of inhibition, Neurospora crassa 846 (*)); 17 mm in data set [7]. In the data set with Candida albicans A-26 [6], the “Size of zone of inhibition, Candida albicans A-26” value (shortened to “Size of zone of inhibition”) was 19 mm.

In the case of `CCCCCCCCCCCCCCCCCCCC(=O)N[C@H]1C[C@@H](O)[C@@H](O)NC(=O)[C@@H]2[C@@H](O)[C@@H](C)CN2C(=O)[C@H]([C@@H](C)O)NC(=O)[C@H]([C@H](O)[C@@H](O)c2ccc(O)cc2)NC(=O)[C@@H]2C[C@@H](O)CN2C(=O)[C@H]([C@@H](C)O)NC1=O` [Example 13] (Arachidoyl-[Orn(4R-OH,5R-OH)]T[Hyp][hTyr(3S-OH,4S-OH)]T[Pro(3S-OH,4S-Me)]; lactam 1-C), the “MIC, Candida albicans A-26” value against Candida albicans A-26 [1] was determined as 5.0 μg/disc. In data set [2], the “MIC, Trichophyton mentagrophytes #6” value came to 5 μg/disc. Also, the “Blood Levels After Oral Administration In Mice” value in data set [3] came to 0 ng/mL. For the same molecule, in the data set on Candida albicans A-26 [4], the ED50 was found to be 40 mg/kg. Besides, the minimal effective dose in the data set on Candida albicans A-26 [4] was 10 mg/kg. In addition, the zone of inhibition at 1000 µg/mL in data set [5] (setting [8]) was 16 mm; in the data set on Neurospora crassa 846 (setting [9]), 13 mm; in data set [7] it was 18 mm. For the same molecule, the “Size of zone of inhibition” value in the data set with Candida albicans A-26 [6] stood at 16 mm.

In the case of `CCCCCCCCCCCCCCCCCCCCCC(=O)N[C@H]1C[C@@H](O)[C@@H](O)NC(=O)[C@@H]2[C@@H](O)[C@@H](C)CN2C(=O)[C@H]([C@@H](C)O)NC(=O)[C@H]([C@H](O)[C@@H](O)c2ccc(O)cc2)NC(=O)[C@@H]2C[C@@H](O)CN2C(=O)[C@H]([C@@H](C)O)NC1=O` [Example 15] (Docosanoyl-[Orn(4R-OH,5R-OH)]T[Hyp][hTyr(3S-OH,4S-OH)]T[Pro(3S-OH,4S-Me)]; lactam 1-C), the “MIC, Candida albicans A-26” value in the data set with Candida albicans A-26 [1] is 5.0 μg/disc. Further, the “MIC, Trichophyton mentagrophytes #6” value in data set [2] turned out to be 5 μg/disc. Also, the “Blood Levels After Oral Administration In Mice” value in data set [3] was 0 ng/mL. Besides, the ED50 in the data set on Candida albicans A-26 [4] is more than 40 mg/kg. Further, in the data set with Candida albicans A-26 [4], the minimal effective dose was more than 40 mg/kg. For the same molecule, the zone of inhibition at 1000 µg/mL in data set [5] (setting [8]) is 20 mm; in the data set on Neurospora crassa 846 (setting [9]), 15 mm; in data set [7] it was 19 mm. The “Size of zone of inhibition” value in the data set on Candida albicans A-26 [6] is given as 12 mm.
